Holding throughout (type): cell-based, HCV
In assay [1] the test system is Pi-Rluc-GT3a-P89L/A166T replicon. Nature of the assay: Transient replicon antiviral assay, Pi-Rluc-GT3a-P89L/A166T in 1C cells. The note with it: for GT3a(P89L/A166T)/Ib EC50 Ratio: EC50 GT3a P89L/A166T divided by EC50 GT1b; for EC50: transient transfection, 1C cells, 3 days, renilla luciferase, mean of at least two experiments. Here is the method: (§1) Replicon RNA were electroporated into 1C cells as described above. After transfection, cells were quickly transferred into 100 mL of pre-warmed culture medium, and 90 μl was seeded in 384-well plates at a density of 2,000 cells/well. Cells were treated with three-fold serial drug dilutions at 10 different concentrations. Cell plates were incubated at 37° C. for 3 days, after which culture medium was removed and cells were assayed for luciferase activity as markers for replicon levels. Luciferase expression was quantified using a commercial luciferase assay (Promega). Luciferase levels were converted into percentages relative to the levels in the untreated controls (defined as 100%), and data were fitted to the logistic dose-response equation y=a/[1+(x/b)^c] using XLFit4 software (IDBS, Emeryville, Calif.).
(§2) To investigate antiviral activity against genotype 3a, five different classes of HCV inhibitors were tested in a transient assay of the genotype 3a Pi-Rluc replicon: NS3 protease, NS5A, NS5B active site, NS5B non-active site, and host factor inhibitors. A standard genotype 1b Pi-Rluc replicon was tested in parallel. The transient replicon replication assays were performed in 1C cells to minimize the potential influence of host cell difference on compound antiviral activities. EC50 values against both genotype 1b and genotype 3a replicons were successfully generated for all inhibitors using a high-throughput 384-well assay measuring Rluc activity (Table 10).
(§3) Five different classes of HCV inhibitors as listed in the first column were evaluated for their antiviral activities against GT1b and GT3a Pi-Rluc replicon in a transient transfection high-throughput 384-well format by measuring renilla luciferase activity. Data presented in the table represent the mean of at least two independent experiments.
(In general: Replicon systems follow genome replication, usually without infectious particles.)

For assay [2], the system named is Pi-Rluc-GT3a-P89L/K583E replicon. The assay can be described thus: Transient replicon antiviral assay, Pi-Rluc-GT3a-P89L/K583E in 1C cells. To be noted: for GT3a(P89L/K583E)/Ib EC50 Ratio: EC50 GT3a P89L/K583E divided by EC50 GT1b; for EC50: transient transfection, 1C cells, 3 days, renilla luciferase, mean of at least two experiments. Here is the method:
as §1, §2, §3

For assay [3], the system named is genotype 1b Pi-Rluc replicon. Nature of the assay: Transient replicon antiviral assay, Pi-Rluc-GT1b in 1C cells. The note with it: transient transfection, 3 days, renilla luciferase, mean of at least two experiments. As to the method: as §1, §2, §3
In assay [4] the test system is genotype 3a Pi-Rluc replicon. The assay can be described thus: Transient genotype 3a Pi-Rluc replicon assay, summary over both GT3a replicons. To be noted: for EC50: read-out: EC50 values against genotype 3a. As to the method: as §1, §2

The structures appear in SMILES notation. Where two headings read alike, the source gives them in different places.

What is called EC50 is the concentration at which the effect is half-maximal.

As to `CN(C)CCN(C)[C@H]1COc2ccccc2-c2c(C3CCCCC3)c3ccc(C(=O)O)cc3n2C1` [MK-3281], the “GT3a(P89L/A166T)/Ib EC50 Ratio” value in assay [1] was found to be 0.47. For the same molecule, the EC50 in assay [1] (Hepatitis C virus, GT3A, 72 h) stood at 277 nM; in assay [2] (Hepatitis C virus, GT3A, 72 h), 180 nM; in assay [3] (Hepatitis C virus, 72 h) it was 587 nM. Also, the “GT3a(P89L/K583E)/Ib EC50 Ratio” value in assay [2] was determined as 0.31. Besides, in assay [4] (transient Pi-Rluc replicons), the “fold more active against genotype 3a compared with genotype 1b” value is reported as “about 2 fold”.

As for `CCC[C@H](NC(=O)[C@@H]1[C@H]2CCC[C@H]2CN1C(=O)[C@@H](NC(=O)[C@@H](NC(=O)c1cnccn1)C1CCCCC1)C(C)(C)C)C(=O)C(=O)NC1CC1` [Telaprevir, telaprevir], the “GT3a(P89L/A166T)/Ib EC50 Ratio” value in assay [1] was 1.6. For the same molecule, the EC50 was 650 nM in assay [1] (Hepatitis C virus, GT3A, 72 h); 1330 nM in assay [2] (Hepatitis C virus, GT3A, 72 h); 407 nM in assay [3] (Hepatitis C virus, 72 h). For the same molecule, in assay [2], the “GT3a(P89L/K583E)/Ib EC50 Ratio” value turned out to be 3.27.

`CNC(=O)c1c(-c2ccc(F)cc2)oc2cc(N(CCO)S(C)(=O)=O)c(C3CC3)cc12` [HCV-796]: the “GT3a(P89L/A166T)/Ib EC50 Ratio” value in assay [1] worked out at 0.14. For the same molecule, the EC50 came out at 2.8 nM in assay [1] (Hepatitis C virus, GT3A, 72 h); 2.4 nM in assay [2] (Hepatitis C virus, GT3A, 72 h); 20 nM in assay [3] (Hepatitis C virus, 72 h). Also, in assay [2], the “GT3a(P89L/K583E)/Ib EC50 Ratio” value worked out at 0.12. Besides, the “fold more active against genotype 3a compared with genotype 1b” value in assay [4] (transient Pi-Rluc replicons) is listed as roughly 7 fold.

Regarding `Fc1ccccc1-c1nc2ccn(Cc3ccc(-c4ccc(C(F)(F)F)cc4C(F)(F)F)nn3)cc-2n1` [GS-9190], in assay [1], the “GT3a(P89L/A166T)/Ib EC50 Ratio” value is 17 and the concentration for a half-maximal effect (EC50) amounted to 42 nM. In addition, in assay [2], the “GT3a(P89L/K583E)/Ib EC50 Ratio” value was 18 and the EC50 was determined as 46 nM. In assay [3], this molecule showed an EC50 of 3 nM. In assay [4] (transient Pi-Rluc replicons), the “fold less active (less potent) against genotype 3a versus genotype 1b” value (from here on “fold less active (less potent)”) is listed as “approximately 17 fold”.

On to `CC[C@@H]1C[C@]1(NC(=O)[C@@H]1C[C@@H](Oc2cc(-c3csc(NC(C)C)n3)nc3c(Cl)c(OCCN4CCOCC4)ccc23)CN1C(=O)[C@@H](NC(=O)O[C@@H]1C[C@@H]2C[C@@H]2C1)C(C)(C)C)C(=O)O` [GS-9451], for which the “GT3a(P89L/A166T)/Ib EC50 Ratio” value in assay [1] is 173. Further, the EC50 stood at 1650 nM in assay [1], 921 nM in assay [2] and 10 nM in assay [3]. The “GT3a(P89L/K583E)/Ib EC50 Ratio” value in assay [2] stood at 97.

As to `C/C=C/C[C@@H](C)[C@@H](O)[C@H]1C(=O)N[C@@H](CC)C(=O)N(C)[C@H](SCCN(C)C)C(=O)N(C)[C@@H](CC(C)(C)O)C(=O)N[C@@H](C(C)C)C(=O)N(C)[C@@H](CC(C)C)C(=O)N[C@@H](C)C(=O)N[C@H](C)C(=O)N(C)[C@@H](CC(C)C)C(=O)N(C)[C@@H](CC(C)C)C(=O)N(C)[C@@H](C(C)C)C(=O)N1C` [SCY-635], in assay [1], the “GT3a(P89L/A166T)/Ib EC50 Ratio” value was determined as 1.2. Further, the EC50 in assay [1] (Hepatitis C virus, GT3A, 72 h) worked out at 78 nM; in assay [2] (Hepatitis C virus, GT3A, 72 h), 59 nM; in assay [3] (Hepatitis C virus, 72 h), 65 nM. For the same molecule, in assay [2], the “GT3a(P89L/K583E)/Ib EC50 Ratio” value is recorded as 0.91. The “potency against genotype 1b and 3a replicons compared (in words)” value in assay [4] (transient Pi-Rluc replicons) is “equivalent potency”.

Consider `CCc1cc(CC[C@]2(C3CCCC3)CC(O)=C(Cc3nc4nc(C)cc(C)n4n3)C(=O)O2)cc(CC)n1` [Filibuvir, filibuvir], for which the “GT3a(P89L/A166T)/Ib EC50 Ratio” value in assay [1] was 17. In addition, the EC50 in assay [1] (Hepatitis C virus, GT3A, 72 h) is 2040 nM; in assay [2] (Hepatitis C virus, GT3A, 72 h) it was 895 nM; in assay [3] (Hepatitis C virus, 72 h) it was 121 nM. In addition, the “GT3a(P89L/K583E)/Ib EC50 Ratio” value in assay [2] is listed as 7.4. The “fold less active (less potent)” value in assay [4] (transient Pi-Rluc replicons) is recorded as “approximately 17 fold”.

In the case of `CC1=CC[C@H](C(=O)N(c2cc(C#CC(C)(C)C)sc2C(=O)O)[C@H]2CC[C@](O)(CO[C@H]3CCOC3)CC2)CC1` [GS-9669], in assay [1], the “GT3a(P89L/A166T)/Ib EC50 Ratio” value turned out to be 61 and it took 230 nM to reach a half-maximal effect (EC50). Further, in assay [2], the “GT3a(P89L/K583E)/Ib EC50 Ratio” value is 33 and the EC50 was 125 nM. The same molecule displayed an EC50 in assay [3] of 3.8 nM. Moreover, in assay [4] (transient Pi-Rluc replicons), the “fold less active (less potent)” value is roughly 60 fold.

`COC(=O)N[C@H](C(=O)N1CCC[C@H]1c1nc(-c2ccc(-c3ccc(-c4c[nH]c([C@@H]5CCCN5C(=O)[C@@H](NC(=O)OC)C(C)C)n4)cc3)cc2)c[nH]1)C(C)C` [BMS-790052]: in assay [1], the “GT3a(P89L/A166T)/Ib EC50 Ratio” value is recorded as 11. The 50% effective concentration (EC50) was 0.31 nM in assay [1] (Hepatitis C virus, GT3A, 72 h); 0.45 nM in assay [2] (Hepatitis C virus, GT3A, 72 h); 0.03 nM in assay [3] (Hepatitis C virus, 72 h); 0.31 to 0.45 nM in assay [4] (Hepatitis C virus). The “GT3a(P89L/K583E)/Ib EC50 Ratio” value in assay [2] turned out to be 15. Further, the “fold less active (less potent)” value in assay [4] (transient Pi-Rluc replicons) was found to be 11 fold.

With `CC(C)(C)NC(=O)N[C@H](C(=O)N1C[C@H]2[C@@H]([C@H]1C(=O)NC(CC1CCC1)C(=O)C(N)=O)C2(C)C)C(C)(C)C` (stereo partly shown) [Boceprevir, boceprevir], the “GT3a(P89L/A166T)/Ib EC50 Ratio” value in assay [1] worked out at 2.44. The EC50 in assay [1] (Hepatitis C virus, GT3A, 72 h) came to 460 nM; in assay [2] (Hepatitis C virus, GT3A, 72 h), 273 nM. The “GT3a(P89L/K583E)/Ib EC50 Ratio” value in assay [2] was determined as 1.45.

Consider `C=C[C@@H]1C[C@]1(NC(=O)[C@@H]1C[C@@H]2CN1C(=O)[C@H](C(C)(C)C)NC(=O)O[C@@H]1C[C@H]1CCCCCc1nc3ccc(OC)cc3nc1O2)C(=O)NS(=O)(=O)C1CC1` [MK-5172], for which the “GT3a(P89L/A166T)/Ib EC50 Ratio” value in assay [1] is 74. For the same molecule, the concentration giving a half-maximal response (EC50) stood at 60 nM in assay [1] (Hepatitis C virus, GT3A, 72 h); 23 nM in assay [2] (Hepatitis C virus, GT3A, 72 h); 0.81 nM in assay [3] (Hepatitis C virus, 72 h). Moreover, the “GT3a(P89L/K583E)/Ib EC50 Ratio” value in assay [2] is 28.

Take `COC(=O)N[C@H](C(=O)N1CC2(CC2)C[C@H]1c1nc(-c2ccc3c(c2)C(F)(F)c2cc(-c4ccc5[nH]c([C@@H]6[C@H]7CC[C@H](C7)N6C(=O)[C@@H](NC(=O)OC)C(C)C)nc5c4)ccc2-3)c[nH]1)C(C)C` [GS-5885]: the “GT3a(P89L/A166T)/Ib EC50 Ratio” value in assay [1] turned out to be 22370. Moreover, the EC50 in assay [1] was 92 nM; in assay [2] it was 40 nM; in assay [3], 0.0041 nM; in assay [4] (range over the two GT3a Pi-Rluc replicons), 40 to 92 nM. Also, the “GT3a(P89L/K583E)/Ib EC50 Ratio” value in assay [2] amounted to 9758. Besides, in assay [4] (transient Pi-Rluc replicons), the “fold less active (less potent)” value is given as “approximately 10.000 fold”.

Turning to `CC(C)OC(=O)[C@H](C)N[P@](=O)(OC[C@H]1O[C@@H](n2ccc(=O)[nH]c2=O)[C@](C)(F)[C@@H]1O)Oc1ccccc1` [GS-7977], in assay [1], the “GT3a(P89L/A166T)/Ib EC50 Ratio” value was found to be 0.31 and a half-maximal response (EC50) required 12 nM. Moreover, in assay [2], the “GT3a(P89L/K583E)/Ib EC50 Ratio” value is listed as 0.15 and the EC50 amounted to 5.8 nM. Besides, the midpoint of the response in assay [3], the EC50, lay at 40 nM.

Turning to `COc1ccc2c(O[C@@H]3C[C@H]4C(=O)N[C@]5(C(=O)O)C[C@H]5/C=C\CCCCC[C@H](NC(=O)OC5CCCC5)C(=O)N4C3)cc(-c3csc(NC(C)C)n3)nc2c1` [BILN-2061], the “GT3a(P89L/A166T)/Ib EC50 Ratio” value in assay [1] is 478. Moreover, the EC50 turned out to be 447 nM in assay [1] (Hepatitis C virus, GT3A, 72 h); 95 nM in assay [2] (Hepatitis C virus, GT3A, 72 h); 0.93 nM in assay [3] (Hepatitis C virus, 72 h). The “GT3a(P89L/K583E)/Ib EC50 Ratio” value in assay [2] was 102.

These data come from patent publication US8889848B2, “HCV genotype 3 replicons” (priority 2011, dated 2014).
